Key:
[1] = tested on: Staphylococcus aureus; experiment: MIC of host defense peptides in liquid medium (microbroth dilution); format: cell-based; conditions: 18–24 h, 37°C
Procedure: (§1) Experiments were carried out with a collection of 25 Listeria monocytogenes strains (Table 1) and 16 Staphylococcus aureus strains (Table 2) representing different lineages and serotypes (L. monocytogenes), spa types (S. aureus), and origins (food processing environment, food products, and human clinical isolates). Six L. monocytogenes strains were mutants of the EGD strain and were mutated in genes known to be involved in stress tolerance. The S. aureus collection comprised two deletion mutants, strains Sa113/ΔmprF [8] and Sa113/ΔdltA [7], known to be more sensitive to host defense peptides. Two of the S. aureus strains could not immediately be assigned to an existing spa type and we are in the process of acquiring the additional information that is needed to assign a new spa type to them. The strains were obtained from The National Institute of Aquatic Resources and The National Food Institute, Technical University of Denmark, Faculty of Life Sciences, University of Copenhagen, Denmark, Statens Serum Institut, Denmark, University of Würzburg, Germany and Campden Food and Drink Association, United Kingdom. Stock cultures were stored at -80°C in 4% (w/V) glycerol, 0.5% (w/V) glucose, and 2.0% (w/V) skimmed milk powder. The bacteria were grown in Brain Heart Infusion (BHI) broth (Oxoid, CM0225), Tryptone Soy Broth (TSB) (Oxoid, CM129), and cation-adjusted Mueller-Hinton II Broth (MHB) (Becton Dickinson, 212322) adjusted to pH 7.4. To avoid unspecific binding of host defense peptides to plastic ware and agar, all MIC determinations were carried out using polypropylene plastic ware and radial diffusion assays were carried out in MHB supplemented with 1% agarose (Invitrogen, 15510-027) as gelling agent.
(§2) Protamine was purchased from Sigma (P4020-5G). Plectasin, novicidin, and novispirin G10 were supplied by Novozymes A/S. Recombinant HBD-3 was purchased from PeproTech (300-52).
(§3) The strain collection was tested for sensitivity to protamine, plectasin, novicidin, and novispirin G10 by determining their minimal inhibitory concentration (MIC) using a microbroth dilution method. Colonies from a BHI agar plate incubated overnight were suspended in MHB pH 7.4 to a turbidity of 0.11–0.12 at 546 nm (approx. 1.0 × 10^8 CFU/ml) and diluted in MHB to a concentration of 5.0 × 10^5 CFU/ml. 90 μl of bacterial suspension was incubated with 10 μl of peptide solution in polypropylene 96-well plates (Nunc, 442587) for 18–24 h at 37°C. The peptide solutions were made fresh on the day of assay and diluted two-fold. The range of concentrations assayed were 0.031–32 μg/ml for novicidin, 0.125–128 μg/ml for protamine and novispirin G10, and 0.25–256 μg/ml for plectasin. MIC was the lowest peptide concentration at which visual growth was inhibited. The minimum bactericidal concentration (MBC) values were determined by plating l0 μl samples from wells with no visible growth onto BHI agar plates. MBC was the lowest concentration of each peptide of which 99.9% reduction of the initial inoculum was observed.

[2] = tested on: Listeria monocytogenes; experiment: as above; format: cell-based; conditions: 18–24 h, 37°C
Procedure: as §1, §2, §3

[3] = tested on: L. monocytogenes and S. aureus; experiment: Minimum bactericidal concentration (MBC), plating from MIC wells; format: cell-based, Listeria monocytogenes, Staphylococcus aureus; conditions: 99.9% reduction of initial inoculum; 10 μl from wells with no visible growth plated on BHI agar
Procedure: as §3

novispirin G10
96 µg/mL: MIC ([2]; strain 6895, MHB pH 7.4, 5.0 × 10^5 CFU/ml)
identical to the MICs: minimum bactericidal concentrations (MBC) [3]
16 µg/mL: MIC ([2]; strain LO28 (wildtype), MHB pH 7.4, 5.0 × 10^5 CFU/ml)
64 µg/mL: MIC ([1]; strain 2148-jvi, MHB pH 7.4, 5.0 × 10^5 CFU/ml) | MIC ([1]; strain KES 626, MHB pH 7.4, 5.0 × 10^5 CFU/ml) | MIC ([1]; strain KES 855, MHB pH 7.4, 5.0 × 10^5 CFU/ml) | MIC ([2]; strain 2275 (EGD dps del), MHB pH 7.4, 5.0 × 10^5 CFU/ml) | MIC ([2]; strain 2315 (EGD sigB del), MHB pH 7.4, 5.0 × 10^5 CFU/ml) | MIC ([2]; strain 2317 (EGD prfA del), MHB pH 7.4, 5.0 × 10^5 CFU/ml) | MIC ([2]; strain 4239, MHB pH 7.4, 5.0 × 10^5 CFU/ml) | MIC ([2]; strain 4446, MHB pH 7.4, 5.0 × 10^5 CFU/ml) | MIC ([2]; strain 4666, MHB pH 7.4, 5.0 × 10^5 CFU/ml) | MIC ([2]; strain 7418, MHB pH 7.4, 5.0 × 10^5 CFU/ml) | MIC ([2]; strain EGD (wildtype), MHB pH 7.4, 5.0 × 10^5 CFU/ml) | MIC ([2]; strain H13-1, MHB pH 7.4, 5.0 × 10^5 CFU/ml) | MIC ([2]; strain La22, MHB pH 7.4, 5.0 × 10^5 CFU/ml) | MIC ([2]; strain M103-1, MHB pH 7.4, 5.0 × 10^5 CFU/ml) | MIC ([2]; strain No40-1, MHB pH 7.4, 5.0 × 10^5 CFU/ml) | MIC ([2]; strain R479a, MHB pH 7.4, 5.0 × 10^5 CFU/ml) | MIC ([2]; strain V518a, MHB pH 7.4, 5.0 × 10^5 CFU/ml)
256 µg/mL: MIC ([1]; strain B31369, MHB pH 7.4, 5.0 × 10^5 CFU/ml)
128 µg/mL: MIC ([1]; strain 796, MHB pH 7.4, 5.0 × 10^5 CFU/ml) | MIC ([1]; strain 8325-4 (wildtype), MHB pH 7.4, 5.0 × 10^5 CFU/ml) | MIC ([1]; strain 15033, MHB pH 7.4, 5.0 × 10^5 CFU/ml) | MIC ([1]; strain B29997, MHB pH 7.4, 5.0 × 10^5 CFU/ml) | MIC ([1]; strain J15033, MHB pH 7.4, 5.0 × 10^5 CFU/ml) | MIC ([1]; strain K3-B2, MHB pH 7.4, 5.0 × 10^5 CFU/ml) | MIC ([1]; strain KES 439, MHB pH 7.4, 5.0 × 10^5 CFU/ml) | MIC ([1]; strain KES 735, MHB pH 7.4, 5.0 × 10^5 CFU/ml) | MIC ([1]; strain Sa113 (wildtype), MHB pH 7.4, 5.0 × 10^5 CFU/ml) | MIC ([2]; strain 7291, MHB pH 7.4, 5.0 × 10^5 CFU/ml) | MIC ([2]; strain O57, MHB pH 7.4, 5.0 × 10^5 CFU/ml)
8 µg/mL: MIC ([1]; strain ΔmprF (Sa113 mprF del), MHB pH 7.4, 5.0 × 10^5 CFU/ml)
2 µg/mL: MIC ([1]; strain ΔdltA (Sa113 dltA ins), MHB pH 7.4, 5.0 × 10^5 CFU/ml)
32 µg/mL: MIC ([2]; strain 2307 (EGD resD del), MHB pH 7.4, 5.0 × 10^5 CFU/ml) | MIC ([2]; strain 2374 (EGD perR ins), MHB pH 7.4, 5.0 × 10^5 CFU/ml) | MIC ([2]; strain 2375 (EGD perR del), MHB pH 7.4, 5.0 × 10^5 CFU/ml) | MIC ([2]; strain 4459, MHB pH 7.4, 5.0 × 10^5 CFU/ml) | MIC ([2]; strain La111, MHB pH 7.4, 5.0 × 10^5 CFU/ml) | MIC ([2]; strain N53-1, MHB pH 7.4, 5.0 × 10^5 CFU/ml) | MIC ([2]; strain Scott A, MHB pH 7.4, 5.0 × 10^5 CFU/ml)

From PMC2639596, “Antimicrobial peptides effectively kill a broad spectrum of Listeria monocytogenes and Staphylococcus aureus strains independently of origin, sub-type, or virulence factor expression” (BMC Microbiology, 2008)
